Values of other authors, collected in patent US20250011247A1, “GYPSUM HARDENED PRODUCT” (KAO CORPORATION, priority 2022, published 2025).

Settings: 1-octanol/water; measured value if any, otherwise C log P calculated by C LOG P v 4.01

For CCCCC=O [pentanal], the “log P” value is listed as 1.31.
